PubChem BioAssay (NCI)
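Growth conditions: 96-well plates. Treatment: test compound, 48 hours, 5 concentrations. Analysis: linear interpolation between bracketing concentrations; unreached endpoints set to highest concentration. TGI: concentration producing complete growth inhibition.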

Assays:
Experiment in all cases: inhibition of tumour cell growth, NCI panel, 48 h
OVCAR-3 ovarian = test system: OVCAR-3 ovarian
CCRF-CEM leukemia = test system: CCRF-CEM leukemia
SK-MEL-28 melanoma = test system: SK-MEL-28 melanoma
HCT-15 colon = test system: HCT-15 colon
SW-620 colon = test system: SW-620 colon
UO-31 renal = test system: UO-31 renal
DU-145 prostate = test system: DU-145 prostate
MOLT-4 leukemia = test system: MOLT-4 leukemia
CAKI-1 renal = test system: CAKI-1 renal
U251 CNS = test system: U251 CNS
NCI/ADR-RES ovarian = test system: NCI/ADR-RES ovarian
NCI-H522 lung = test system: NCI-H522 lung
LOX IMVI melanoma = test system: LOX IMVI melanoma
SF-268 CNS = test system: SF-268 CNS
MDA-MB-231 breast = test system: MDA-MB-231 breast
A498 renal = test system: A498 renal
HT29 colon = test system: HT29 colon
786-0 renal = test system: 786-0 renal
RXF 393 renal = test system: RXF 393 renal
MDA-MB-435 = test system: MDA-MB-435
SN12C renal = test system: SN12C renal
UACC-62 melanoma = test system: UACC-62 melanoma
OVCAR-8 ovarian = test system: OVCAR-8 ovarian
HL-60(TB) leukemia = test system: HL-60(TB) leukemia
HOP-92 NSCLC = test system: HOP-92 NSCLC
KM12 colon = test system: KM12 colon
COLO 205 colon = test system: COLO 205 colon
M14 melanoma = test system: M14 melanoma
K-562 leukemia = test system: K-562 leukemia
SK-MEL-5 melanoma = test system: SK-MEL-5 melanoma
MDA-N = test system: MDA-N
SF-539 CNS = test system: SF-539 CNS
NCI-H460 lung = test system: NCI-H460 lung
EKVX NSCLC = test system: EKVX NSCLC
SK-MEL-2 melanoma = test system: SK-MEL-2 melanoma
SK-OV-3 ovarian = test system: SK-OV-3 ovarian
OVCAR-5 ovarian = test system: OVCAR-5 ovarian
OVCAR-4 ovarian = test system: OVCAR-4 ovarian
NCI-H23 lung = test system: NCI-H23 lung
ACHN renal = test system: ACHN renal
UACC-257 melanoma = test system: UACC-257 melanoma
TK-10 renal = test system: TK-10 renal
T-47D breast = test system: T-47D breast
PC-3 prostate = test system: PC-3 prostate
SR leukemia = test system: SR leukemia
HCT-116 colon = test system: HCT-116 colon
SF-295 CNS = test system: SF-295 CNS
HCC-2998 colon = test system: HCC-2998 colon
HOP-62 NSCLC = test system: HOP-62 NSCLC
SNB-19 CNS = test system: SNB-19 CNS
IGROV1 ovarian = test system: IGROV1 ovarian
A549 NSCLC = test system: A549 NSCLC
SNB-75 CNS = test system: SNB-75 CNS
NCI-H226 lung = test system: NCI-H226 lung
MALME-3M melanoma = test system: MALME-3M melanoma
RPMI-8226 leukemia = test system: RPMI-8226 leukemia
MCF7 breast = test system: MCF7 breast
HS 578T breast = test system: HS 578T breast

With O=c1c2ccccc2n2c(-c3ccc(O)cc3)nnc2n1-c1ccccc1 the TGI (OVCAR-3 ovarian) was 39.5 µM, the TGI (CCRF-CEM leukemia) was 51.3 µM and the TGI (SK-MEL-28 melanoma) was 43.3 µM. For the same molecule, the TGI (HCT-15 colon) was 50.7 µM, the TGI (SW-620 colon) was 29.8 µM and the TGI (UO-31 renal) was 6.83 µM. It also gave a TGI (DU-145 prostate) of 40.1 µM, a TGI (MOLT-4 leukemia) greater than 100 µM and a TGI (CAKI-1 renal) of 65 µM. For the same molecule, the TGI (U251 CNS) was 32.4 µM, the TGI (NCI/ADR-RES ovarian) was 48.5 µM and the TGI (NCI-H522 lung) was 38.8 µM. It also gave a TGI (LOX IMVI melanoma) of 55.4 µM, a TGI (SF-268 CNS) of 38.9 µM and a TGI (MDA-MB-231 breast) of 40.3 µM. For the same molecule, the TGI (A498 renal) was 31.6 µM, the TGI (HT29 colon) was 43.9 µM and the TGI (786-0 renal) was 33.7 µM. For the same molecule, the TGI (RXF 393 renal) was 39.4 µM, the TGI (MDA-MB-435) was 36.2 µM and the TGI (SN12C renal) was 32.2 µM. It also gave a TGI (UACC-62 melanoma) of 38.9 µM, a TGI (OVCAR-8 ovarian) of 90.6 µM and a TGI (HL-60(TB) leukemia) greater than 100 µM. The TGI (HOP-92 NSCLC) was 45.6 µM, the TGI (KM12 colon) was greater than 100 µM and the TGI (COLO 205 colon) was greater than 100 µM. For the same molecule, the TGI (M14 melanoma) was 39.8 µM, the TGI (K-562 leukemia) was 26.2 µM and the TGI (SK-MEL-5 melanoma) was 37.2 µM. For the same molecule, the TGI (MDA-N) was 34.1 µM, the TGI (SF-539 CNS) was 33.9 µM and the TGI (NCI-H460 lung) was 40 µM. The TGI (EKVX NSCLC) was 34.7 µM, the TGI (SK-MEL-2 melanoma) was 40.9 µM and the TGI (SK-OV-3 ovarian) was 38.3 µM. The TGI (OVCAR-5 ovarian) was greater than 100 µM, the TGI (OVCAR-4 ovarian) was 45.3 µM and the TGI (NCI-H23 lung) was 37.7 µM. For the same molecule, the TGI (ACHN renal) was 30 µM, the TGI (UACC-257 melanoma) was 41.8 µM and the TGI (TK-10 renal) was 43.5 µM. For the same molecule, the TGI (T-47D breast) was 34.8 µM, the TGI (PC-3 prostate) was 33.6 µM and the TGI (SR leukemia) was 46.2 µM. The TGI (HCT-116 colon) was 41.2 µM, the TGI (SF-295 CNS) was 31.5 µM and the TGI (HCC-2998 colon) was greater than 100 µM. It also gave a TGI (HOP-62 NSCLC) of 41 µM, a TGI (SNB-19 CNS) of 39.7 µM and a TGI (IGROV1 ovarian) of 34.9 µM. The TGI (A549 NSCLC) was 38.6 µM, the TGI (SNB-75 CNS) was 38.5 µM and the TGI (NCI-H226 lung) was 53.6 µM. For the same molecule, the TGI (MALME-3M melanoma) was 42.6 µM.

In the case of CCOC(CNc1nn2c(C)nnc2s1)OCC, the TGI (OVCAR-3 ovarian) is reported as greater than 100 µM, the TGI (CCRF-CEM leukemia) is reported as greater than 100 µM and the TGI (SK-MEL-28 melanoma) is reported as greater than 100 µM. The TGI (HCT-15 colon) was greater than 100 µM, the TGI (SW-620 colon) was greater than 100 µM and the TGI (DU-145 prostate) was greater than 100 µM. The TGI (MOLT-4 leukemia) was greater than 100 µM, the TGI (CAKI-1 renal) was greater than 100 µM and the TGI (U251 CNS) was greater than 100 µM. For the same molecule, the TGI (NCI/ADR-RES ovarian) was greater than 100 µM, the TGI (NCI-H522 lung) was greater than 100 µM and the TGI (LOX IMVI melanoma) was greater than 100 µM. For the same molecule, the TGI (RPMI-8226 leukemia) was greater than 100 µM, the TGI (SF-268 CNS) was greater than 100 µM and the TGI (MDA-MB-231 breast) was greater than 100 µM. The TGI (A498 renal) was greater than 100 µM, the TGI (HT29 colon) was greater than 100 µM and the TGI (786-0 renal) was greater than 100 µM. It also gave a TGI (RXF 393 renal) greater than 100 µM, a TGI (MDA-MB-435) greater than 100 µM and a TGI (SN12C renal) greater than 100 µM. It also gave a TGI (UACC-62 melanoma) greater than 100 µM, a TGI (OVCAR-8 ovarian) greater than 100 µM and a TGI (HL-60(TB) leukemia) greater than 100 µM. For the same molecule, the TGI (HOP-92 NSCLC) was greater than 100 µM, the TGI (KM12 colon) was greater than 100 µM and the TGI (COLO 205 colon) was greater than 100 µM. The TGI (M14 melanoma) was greater than 100 µM, the TGI (K-562 leukemia) was greater than 100 µM and the TGI (SK-MEL-5 melanoma) was greater than 100 µM. For the same molecule, the TGI (MDA-N) was greater than 100 µM, the TGI (SF-539 CNS) was greater than 100 µM and the TGI (NCI-H460 lung) was greater than 100 µM. For the same molecule, the TGI (EKVX NSCLC) was greater than 100 µM, the TGI (MCF7 breast) was greater than 100 µM and the TGI (SK-MEL-2 melanoma) was greater than 100 µM. It also gave a TGI (SK-OV-3 ovarian) greater than 100 µM, a TGI (OVCAR-5 ovarian) greater than 100 µM and a TGI (OVCAR-4 ovarian) greater than 100 µM. The TGI (NCI-H23 lung) was greater than 100 µM, the TGI (HS 578T breast) was greater than 100 µM and the TGI (ACHN renal) was greater than 100 µM. It also gave a TGI (UACC-257 melanoma) greater than 100 µM, a TGI (TK-10 renal) greater than 100 µM and a TGI (PC-3 prostate) greater than 100 µM. The TGI (SR leukemia) was greater than 100 µM, the TGI (HCT-116 colon) was greater than 100 µM and the TGI (SF-295 CNS) was greater than 100 µM. It also gave a TGI (HCC-2998 colon) greater than 100 µM, a TGI (HOP-62 NSCLC) greater than 100 µM and a TGI (SNB-19 CNS) greater than 100 µM. For the same molecule, the TGI (IGROV1 ovarian) was greater than 100 µM, the TGI (A549 NSCLC) was greater than 100 µM and the TGI (SNB-75 CNS) was greater than 100 µM. For the same molecule, the TGI (NCI-H226 lung) was greater than 100 µM and the TGI (MALME-3M melanoma) was greater than 100 µM.
